Data published in BindingDB's records for patent US20190276450 (Abbvie, 2019).

Legend:
[1] = biological target: Tyrosine-protein kinase JAK2 (Homo sapiens, UniProt O60674); assay: JAK2 (PSTAT5 UT7) Alpha Screen Assay
Method: (§1) Erythropoietin (EPO) is known to transduce its signal through EPO receptor via Jak2. Activity against Jak2 was therefore measured by determining inhibition of EPO induced phosphorylation of STATS in UT7 cells. From these tests, the EC50 (effective concentration for 50% maximal response) values were determined in 1 μM for the test compounds.

[2] = biological target: Non-receptor tyrosine-protein kinase TYK2 (Homo sapiens, UniProt P29597); assay: TYK2 (TYK2/JAK2 PSTAT4 T-BLAST) Alpha Screen Assay
Method: IL-12 is known to transduce its signal through IL-12 receptor via Jak2 and/or Tyk2. For that reason, the activity against Tyk2/Jak2 was measured by determining the inhibition of IL-12 induced phosphorylation of STAT4 in T-blast cells. […] See, e.g., Sohn et al., J. Immunology (2013) 2205-2216.

[3] = biological target: Tyrosine-protein kinase JAK1 (Homo sapiens, UniProt P23458); assay: JAK1 (PSTAT3 TF1) Alpha Screen Assay
Method: as §1, with “IL-6” for “Erythropoietin (EPO)”, “IL-6” for “EPO”, “Jak1.” for “Jak2.”, “Jak” for “Jak2”, “STAT3” for “STATS”, “TF1” for “UT7”

Tyrosine-protein kinase JAK2, sequence (O60674 whole entry): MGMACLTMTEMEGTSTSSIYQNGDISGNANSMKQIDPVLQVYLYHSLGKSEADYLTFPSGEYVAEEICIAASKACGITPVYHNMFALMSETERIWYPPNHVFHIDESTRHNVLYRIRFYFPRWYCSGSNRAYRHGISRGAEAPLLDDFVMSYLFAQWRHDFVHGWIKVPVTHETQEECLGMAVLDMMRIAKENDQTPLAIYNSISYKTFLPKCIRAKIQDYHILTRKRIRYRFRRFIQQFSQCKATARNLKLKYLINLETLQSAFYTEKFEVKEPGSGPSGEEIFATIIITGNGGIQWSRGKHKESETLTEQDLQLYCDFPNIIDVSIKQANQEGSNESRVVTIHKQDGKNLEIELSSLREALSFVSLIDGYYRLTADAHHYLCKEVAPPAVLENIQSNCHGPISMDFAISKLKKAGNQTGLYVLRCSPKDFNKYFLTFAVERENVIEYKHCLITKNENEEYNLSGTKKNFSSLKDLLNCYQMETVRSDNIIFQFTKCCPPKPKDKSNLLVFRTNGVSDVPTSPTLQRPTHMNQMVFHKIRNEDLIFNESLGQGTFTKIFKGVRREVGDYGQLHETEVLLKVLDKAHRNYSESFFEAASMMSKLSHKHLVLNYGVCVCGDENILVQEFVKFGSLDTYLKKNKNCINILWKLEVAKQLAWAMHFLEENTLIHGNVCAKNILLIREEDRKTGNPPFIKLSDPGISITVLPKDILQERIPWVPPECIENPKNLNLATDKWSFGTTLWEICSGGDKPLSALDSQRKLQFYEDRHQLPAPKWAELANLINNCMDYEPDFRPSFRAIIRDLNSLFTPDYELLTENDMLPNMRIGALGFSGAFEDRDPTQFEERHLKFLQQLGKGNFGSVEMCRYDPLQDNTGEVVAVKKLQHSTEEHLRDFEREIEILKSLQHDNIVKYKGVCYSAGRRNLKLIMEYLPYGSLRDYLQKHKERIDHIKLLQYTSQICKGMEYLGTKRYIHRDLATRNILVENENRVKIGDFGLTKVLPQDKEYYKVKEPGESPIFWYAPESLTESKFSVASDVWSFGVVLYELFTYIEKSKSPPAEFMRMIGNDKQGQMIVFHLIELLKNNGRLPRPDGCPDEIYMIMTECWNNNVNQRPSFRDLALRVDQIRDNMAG
Tyrosine-protein kinase JAK1, sequence (P23458 whole entry): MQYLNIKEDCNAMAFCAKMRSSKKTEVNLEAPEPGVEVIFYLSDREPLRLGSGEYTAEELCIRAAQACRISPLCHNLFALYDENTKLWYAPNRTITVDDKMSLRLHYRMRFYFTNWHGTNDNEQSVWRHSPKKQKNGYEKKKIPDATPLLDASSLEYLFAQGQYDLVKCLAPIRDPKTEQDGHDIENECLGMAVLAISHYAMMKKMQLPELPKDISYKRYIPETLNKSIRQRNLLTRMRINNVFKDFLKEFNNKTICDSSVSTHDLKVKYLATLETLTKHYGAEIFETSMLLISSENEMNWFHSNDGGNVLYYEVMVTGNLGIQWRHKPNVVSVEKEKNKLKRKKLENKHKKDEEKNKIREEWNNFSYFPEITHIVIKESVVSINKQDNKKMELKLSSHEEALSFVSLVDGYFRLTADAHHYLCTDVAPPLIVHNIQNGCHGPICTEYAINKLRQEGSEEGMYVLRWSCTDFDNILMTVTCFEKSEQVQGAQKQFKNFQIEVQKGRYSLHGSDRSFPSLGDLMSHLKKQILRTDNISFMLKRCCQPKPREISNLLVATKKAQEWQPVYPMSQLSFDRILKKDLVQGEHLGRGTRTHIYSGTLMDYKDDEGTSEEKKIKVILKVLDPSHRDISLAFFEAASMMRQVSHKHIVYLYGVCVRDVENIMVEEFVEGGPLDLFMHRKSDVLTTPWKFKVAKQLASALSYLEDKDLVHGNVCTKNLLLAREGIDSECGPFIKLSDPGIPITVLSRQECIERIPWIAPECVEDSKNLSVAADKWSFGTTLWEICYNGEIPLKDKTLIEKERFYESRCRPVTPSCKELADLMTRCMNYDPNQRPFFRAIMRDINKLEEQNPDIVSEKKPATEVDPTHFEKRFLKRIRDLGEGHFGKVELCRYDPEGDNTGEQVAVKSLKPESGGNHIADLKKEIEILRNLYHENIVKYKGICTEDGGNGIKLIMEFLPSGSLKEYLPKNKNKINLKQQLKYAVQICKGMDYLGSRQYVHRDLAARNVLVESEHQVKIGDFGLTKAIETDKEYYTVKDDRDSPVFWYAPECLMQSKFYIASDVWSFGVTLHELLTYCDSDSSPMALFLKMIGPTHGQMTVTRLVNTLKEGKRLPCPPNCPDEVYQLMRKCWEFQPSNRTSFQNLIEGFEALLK
Non-receptor tyrosine-protein kinase TYK2, sequence (P29597 whole entry): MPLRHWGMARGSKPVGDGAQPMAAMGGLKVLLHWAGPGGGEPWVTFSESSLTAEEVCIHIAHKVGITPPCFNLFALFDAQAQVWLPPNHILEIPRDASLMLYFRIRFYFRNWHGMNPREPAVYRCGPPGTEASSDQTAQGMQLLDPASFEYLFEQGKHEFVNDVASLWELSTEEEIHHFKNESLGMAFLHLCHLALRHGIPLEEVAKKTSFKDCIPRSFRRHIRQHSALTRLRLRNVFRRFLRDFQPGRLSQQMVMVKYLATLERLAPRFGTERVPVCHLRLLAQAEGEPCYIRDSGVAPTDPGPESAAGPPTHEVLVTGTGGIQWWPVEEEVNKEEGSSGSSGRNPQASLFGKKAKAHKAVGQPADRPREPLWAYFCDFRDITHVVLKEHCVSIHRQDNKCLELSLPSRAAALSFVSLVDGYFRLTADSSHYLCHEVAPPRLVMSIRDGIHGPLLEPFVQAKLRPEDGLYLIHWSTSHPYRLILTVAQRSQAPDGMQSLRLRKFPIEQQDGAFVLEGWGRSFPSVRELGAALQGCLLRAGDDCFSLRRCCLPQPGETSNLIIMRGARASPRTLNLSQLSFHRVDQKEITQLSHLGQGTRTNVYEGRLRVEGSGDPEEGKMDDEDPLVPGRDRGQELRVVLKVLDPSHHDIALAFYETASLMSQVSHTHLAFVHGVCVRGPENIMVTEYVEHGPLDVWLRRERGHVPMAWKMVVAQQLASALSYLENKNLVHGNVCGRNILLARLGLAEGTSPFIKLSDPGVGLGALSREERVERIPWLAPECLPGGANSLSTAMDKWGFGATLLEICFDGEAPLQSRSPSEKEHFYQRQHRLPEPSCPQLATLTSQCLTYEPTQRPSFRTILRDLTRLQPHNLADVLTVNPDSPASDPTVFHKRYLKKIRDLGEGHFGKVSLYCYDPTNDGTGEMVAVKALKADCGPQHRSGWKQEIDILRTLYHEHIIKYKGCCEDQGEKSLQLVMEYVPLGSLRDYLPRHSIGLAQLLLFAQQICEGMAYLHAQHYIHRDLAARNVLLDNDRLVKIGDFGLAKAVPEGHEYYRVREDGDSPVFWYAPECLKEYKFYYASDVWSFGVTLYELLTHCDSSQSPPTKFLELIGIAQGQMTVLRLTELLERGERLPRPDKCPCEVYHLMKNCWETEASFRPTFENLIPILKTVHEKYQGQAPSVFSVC

Compound	EC50 [1]	EC50 [2]	EC50 [3]
CO[C@@]1(c2cccc(-c3cn([C@@H]4CC4(F)F)c4cnc(NC(N)=O)cc34)n2)CCOC1 [US20190276450, Example 1.2]	> 25 µM	0.045 µM	13.5 µM
CO[C@@]1(c2cccc(-c3cn(C)c4cnc(NC(N)=O)cc34)n2)CCOC1 [US20190276450, Example 1]	> 25 µM	0.059 µM	5.45 µM
CO[C@@]1(c2cc(C)cc(-c3cn(C)c4cnc(NC(N)=O)cc34)n2)CCOC1 [US20190276450, Example 1b.2]	> 25 µM	0.025 µM	21 µM
COC1(c2cccc(-c3cn(C)c4cnc(NC(N)=O)cc34)n2)COC1 [US20190276450, Example 1b.4]	> 25 µM	0.142 µM	7.6 µM
Cn1cc(-c2cncc([C@]3(C)CCOC3)n2)c2cc(NC(N)=O)ncc21 [US20190276450, Example 1b.5]	> 25 µM	0.018 µM	1.5 µM
Cn1cc(-c2cncc([C@@]3(C)CCOC3)n2)c2cc(NC(N)=O)ncc21 [US20190276450, Example 1b.6]	> 25 µM	0.195 µM	4.2 µM
CO[C@@]1(c2cc(C)cc(-c3cn(C)c4cnc(NC(C)=O)cc34)n2)CCOC1 [US20190276450, Example 2.2]	> 25 µM	0.198 µM	41 µM
CO[C@@]1(c2cc(C(F)F)cc(-c3cn(C)c4cnc(NC(C)=O)cc34)n2)CCOC1 [US20190276450, Example 2.8]	> 25 µM	0.042 µM	17 µM
CC[C@]1(c2cc(C#N)cc(-c3cn(C)c4cnc(NC(C)=O)cc34)n2)CCOC1 [US20190276450, Example 2.11]	> 25 µM	0.104 µM	7.5 µM
COCc1cc(-c2cn(C)c3cnc(NC(C)=O)cc23)nc([C@]2(OC)CCOC2)c1 [US20190276450, Example 2]	> 25 µM	0.126 µM	> 40 µM
CO[C@@]1(c2cc(C#N)cc(-c3cn([C@@H]4CC4(F)F)c4cnc(NC(C)=O)cc34)n2)CCOC1 [US20190276450, Example 2a.3]	> 25 µM	0.127 µM	56 µM
CC[C@@]1(c2cccc(-c3cn(C)c4cnc(NC(N)=O)cc34)n2)CCOC1 [US20190276450, Example 3.2]	> 25 µM	0.014 µM	3.4 µM
COCc1cc(-c2cn(C)c3cnc(NC(N)=O)cc23)nc([C@]2(OC)CCOC2)c1 [US20190276450, Example 3]	> 25 µM	0.035 µM	18 µM
CO[C@@]1(c2cc(C(F)F)cc(-c3cn(C4COC4)c4cnc(NC(C)=O)cc34)n2)CCOC1 [US20190276450, Example 4.3]	> 25 µM	0.174 µM	54 µM
COCc1cc(-c2cn(C3COC3)c3cnc(NC(C)=O)cc23)nc([C@]2(OC)CCOC2)c1 [US20190276450, Example 4]	> 25 µM	0.137 µM	> 100 µM
CO[C@@]1(c2cc(OCC3COC3)cc(-c3cn(C)c4cnc(NC(C)=O)cc34)n2)CCOC1 [US20190276450, Example 6]	> 25 µM	0.05 µM	21 µM
CO[C@@]1(c2cc(OCC[C@@H](C)O)cc(-c3cn(C)c4cnc(NC(C)=O)cc34)n2)CCOC1 [US20190276450, Example 7]	> 25 µM	0.878 µM	34 µM
CO[C@@]1(c2cc(OC3COC3)cc(-c3cn(C)c4cnc(NC(C)=O)cc34)n2)CCOC1 [US20190276450, Example 8]	–	0.09 µM	22 µM
CO[C@@]1(c2cc(OCC[C@H](C)O)cc(-c3cn(C)c4cnc(NC(C)=O)cc34)n2)CCOC1 [US20190276450, Example 9]	> 25 µM	0.085 µM	42 µM
CO[C@@]1(c2cc(OCCO)cc(-c3cn(C)c4cnc(NC(C)=O)cc34)n2)CCOC1 [US20190276450, Example 10]	> 25 µM	0.091 µM	27 µM
CO[C@@]1(c2cc(O[C@H]3C[C@H](O)C3)cc(-c3cn(C)c4cnc(NC(C)=O)cc34)n2)CCOC1 [US20190276450, Example 11]	> 25 µM	0.052 µM	23 µM
CO[C@@]1(c2cc(C#N)cc(-c3cn(C)c4cnc(NC(N)=O)cc34)n2)CCOC1 [US20190276450, Example 12.3]	> 25 µM	0.094 µM	13 µM
CO[C@@]1(c2cc(C(F)F)cc(-c3cn(C)c4cnc(NC(N)=O)cc34)n2)CCOC1 [US20190276450, Example 12.5]	–	0.022 µM	20 µM
COc1cc(-c2cn(C)c3cnc(NC(N)=O)cc23)nc([C@]2(OC)CCOC2)c1 [US20190276450, Example 12.6]	> 25 µM	0.039 µM	15 µM

Compound	EC50 [1]	EC50 [2]	EC50 [3]
COc1cc(-c2cn(C)c3cnc(NC(N)=O)cc23)nc([C@@]2(OC)CCOC2)c1 [US20190276450, Example 12.7]	–	0.185 µM	15 µM
CO[C@@]1(c2cncc(-c3cn(C)c4cnc(NC(N)=O)cc34)n2)CCOC1 [US20190276450, Example 12]	> 25 µM	0.244 µM	16.2 µM
CO[C@@]1(c2cc(C#N)cc(-c3cn([C@@H]4CC4(F)F)c4cnc(NC(N)=O)cc34)n2)CCOC1 [US20190276450, Example 12a.3]	–	0.066 µM	> 100 µM
CO[C@@]1(c2cc(C(F)F)cc(-c3cn([C@@H]4CCOC4)c4cnc(NC(N)=O)cc34)n2)CCOC1 [US20190276450, Example 12b.2]	–	0.015 µM	40 µM
CO[C@@]1(c2cc(C(F)F)cc(-c3cn([C@H]4CCOC4)c4cnc(NC(N)=O)cc34)n2)CCOC1 [US20190276450, Example 12b.3]	–	0.056 µM	68 µM
CO[C@@]1(c2cc(C(F)F)cc(-c3cn(C4COC4)c4cnc(NC(N)=O)cc34)n2)CCOC1 [US20190276450, Example 12b.4]	–	0.045 µM	40 µM
CO[C@@]1(c2cc(O[C@@H](C)CCO)cc(-c3cn(C)c4cnc(NC(C)=O)cc34)n2)CCOC1 [US20190276450, Example 14.4]	> 25 µM	0.134 µM	63 µM
CO[C@@]1(c2cc(OC[C@H](C)O)cc(-c3cn(C)c4cnc(NC(C)=O)cc34)n2)CCOC1 [US20190276450, Example 14.5]	> 25 µM	0.146 µM	71 µM
CO[C@@]1(c2cc(OC[C@@H](C)O)cc(-c3cn(C)c4cnc(NC(C)=O)cc34)n2)CCOC1 [US20190276450, Example 14.6]	> 25 µM	0.087 µM	49 µM
Cn1cc(-c2cccc(C3(O)COC3)n2)c2cc(NC(N)=O)ncc21 [US20190276450, Example 14]	–	0.563 µM	11.1 µM
NC(=O)Nc1cc2c(-c3cccc(C4(O)COC4)n3)cn([C@@H]3CCOC3)c2cn1 [US20190276450, Example 15]	–	0.908 µM	73 µM
CO[C@@]1(c2cc(C(F)F)cc(-c3cn([C@H]4C[C@H](C#N)C4)c4cnc(NC(C)=O)cc34)n2)CCOC1 [US20190276450, Example 17.2]	> 25 µM	0.144 µM	35 µM
CO[C@@]1(c2cc(C)cc(-c3cn([C@H]4C[C@H](C#N)C4)c4cnc(NC(C)=O)cc34)n2)CCOC1 [US20190276450, Example 17.4]	–	0.127 µM	20 µM
CO[C@@]1(c2cc(C)cc(-c3cn([C@H]4C[C@@H](C#N)C4)c4cnc(NC(C)=O)cc34)n2)CCOC1 [US20190276450, Example 17.5]	–	0.005 µM	32 µM
CO[C@@]1(c2cccc(-c3cn([C@H]4C[C@H](C#N)C4)c4cnc(NC(C)=O)cc34)n2)CCOC1 [US20190276450, Example 17]	> 25 µM	0.031 µM	27 µM
COc1cc(-c2cn(C)c3cnc(NC(C)=O)cc23)nc([C@]2(OC)CCOC2)c1 [US20190276450, Example 20]	–	0.137 µM	45 µM
CC(=O)Nc1cc2c(-c3cccc([C@]4(CO)CCOC4)n3)cn(C)c2cn1 [US20190276450, Example 21]	> 25 µM	0.08 µM	2.8 µM
CO[C@@]1(c2cc(OC(F)F)cc(-c3cn(C)c4cnc(NC(C)=O)cc34)n2)CCOC1 [US20190276450, Example 22.2]	> 25 µM	0.089 µM	35 µM
CC(=O)Nc1cc2c(-c3cc(C(F)F)cc([C@]4(CO)CCOC4)n3)cn(C)c2cn1 [US20190276450, Example 22.5]	> 25 µM	0.072 µM	7.05 µM
COc1cc(-c2cn(C)c3cnc(NC(C)=O)cc23)nc([C@]2(CO)CCOC2)c1 [US20190276450, Example 22.6]	> 25 µM	0.13 µM	11.1 µM
COCCOc1cc(-c2cn(C)c3cnc(NC(C)=O)cc23)nc([C@]2(CO)CCOC2)c1 [US20190276450, Example 22.8]	> 25 µM	0.184 µM	18.9 µM
CO[C@H](C)COc1cc(-c2cn(C)c3cnc(NC(C)=O)cc23)nc([C@]2(OC)CCOC2)c1 [US20190276450, Example 22.10]	> 25 µM	0.092 µM	> 25 µM
COCc1cc(-c2cn(C)c3cnc(NC(C)=O)cc23)nc([C@@]2(CO)CCOC2)c1 [US20190276450, Example 22a]	> 25 µM	1.2 µM	–
